Article PMC6368403, “Identification of a bilirubin receptor that may mediate a component of cholestatic itch” (eLife, 2019)
Where “and” joins values, the source holds several entries; their conditions need not be identical. Identical values can stand only once. Square brackets hold non-standard residues; d marks the D form. Peptide text beside a SMILES is read from it. * marks the point of attachment. Boc = CC(C)(C)OC(=O)*; OBn = c1ccc(CO*)cc1; For = O=C*

Experiments:
[1] = target: MRGPRA1, GFP-tagged (mouse) (UniProt Q91WW5)
mice = test: Plasma injection assay: scratching bouts after injection of mouse or human plasma; assay type: in vivo; details: plasma treated with FeCl3 (vs NT), one value per animal
Source text: Plasma from patients suffering from hyperbilirubinemia, specifically cholestasis, was isolated under a protocol approved by the Institutional Review Board at the Johns Hopkins University School of Medicine (Study number: IRB00154650). […] Both cholestatic and control plasma were isolated under protocols approved by the Institutional Review Board at the Johns Hopkins University School of Medicine (Cholestasis Study number: IRB00154650; Control study number: NA_00013177, the Johns Hopkins Department of Dermatology Patient Database and Tissue Bank). Whole blood was collected into PAXgene tubes (PreAnalytiX 761115) and centrifuged for 5 min at 300 g. Plasma was then collected, aliquoted, and stored at −20°C until experimentation. […] All applicable behavioral tests were performed and analysed with the experimenter blind to genotype. […] There were no significant differences in itch between male and female mice. […] On the day before the experiment, animals were placed in the test chamber for 30 min before being subjected to a series of three mock injections with 5 min break periods in between. On the day of the experiment, animals were first allowed to acclimatize to the test chamber for 10 min before injection. […] A bout of scratching was defined as a continuous scratching movement with either hindpaw directed at the area of the injection site. In the cheek injection model, a wipe was defined as a single forepaw stroking the site of the injection. Use of both forepaws on the face or cheek was considered as grooming behavior. […] For H1R block, 30 mg/kg of cetirizine HCl (pH 7.4) was given intraperitoneally thirty minutes prior to injection of bilirubin. Licking behavior was quantified in seconds and identified as the licking of the toes or footpad of the hind paw site of injection that was neither preceded nor followed by licking of any other portion of the body.

[2] = mouse, in vivo, 1 mg/kg
[3] = cited from earlier work

Sequence of MRGPRA1, GFP-tagged (mouse) (Q91WW5 whole entry): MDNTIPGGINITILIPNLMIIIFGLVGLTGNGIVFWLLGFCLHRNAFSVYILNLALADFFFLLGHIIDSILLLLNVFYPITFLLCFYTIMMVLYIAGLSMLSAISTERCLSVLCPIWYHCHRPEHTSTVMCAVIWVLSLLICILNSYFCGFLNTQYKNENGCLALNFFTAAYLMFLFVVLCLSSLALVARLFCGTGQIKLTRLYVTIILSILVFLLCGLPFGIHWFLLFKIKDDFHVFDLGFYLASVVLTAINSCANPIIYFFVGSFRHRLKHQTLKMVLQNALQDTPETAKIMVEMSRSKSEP

“QWF (BOC-GLN-D-(FORMYL)TRP-PHE-BENZYLESTER) (peptide)” gave an inhibition of the bilirubin-induced Ca2+ signal in MRGPRA1-expressing HEK cells (200 µM bilirubin kept in competition with varied doses of QWF) [1] of 2.9 µM.

With [Cl][Fe]([Cl])[Cl] [FeCl3] the “Scratching bouts after injection of plasma” value (“Scratching bouts” for short) (mice; NT values equal cholestasis WT c1 of sheet Fig 7 - CD) was 75 and 132 and 54 and 111 and 173 and 58 and 34, the “Scratching bouts” value (mice; NT/FeCl3 pair, NT values equal cholestasis WT c7 of sheet Fig 7 - CD) was 117 and 53 and 60 and 54 and 67 and the “Scratching bouts” value (mice; NT/FeCl3 pair, plasma source not given) was 45 and 53 and 51 and 41 and 34.

For CC(C)(C)OC(=O)N[C@@H](CCC(N)=O)C(=O)N[C@H](Cc1cn(C=O)c2ccccc12)C(=O)N[C@@H](Cc1ccccc1)C(=O)OCc1ccccc1 [QWF, BOC-GLN-D-(FORMYL)TRP-PHE-BENZYLESTER] (Boc-Gln-[dW](For)-Phe-OBn), the “Plasma levels of total bilirubin, AST, ALT, ALP” value [2] is given as “did not change plasma levels of total bilirubin, AST, ALT, or ALP” and the t1/2 in plasma [3] is given as 1.17 h.
